Measurements from publication PMC11062922 (Nature Chemical Biology, 2023).
Read-outs that look alike come from different tables or passages of the source.

Assays:
ACOX1 = target: T1, ACOX1 (Homo sapiens, UniProt Q15067); experiment: Kinobeads two-dose competition binding: ACOX1; conditions: sheet CATDS matrix 2; Gene Name ACOX1;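 note: competition of compounds with immobilized broad-spectrum kinase inhibitor beads in cell lysate at 100 and 1,000 nM, 45 min at 4 °C, bead-bound protein quantified by label-free MS versus DMSO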
T1 construct: endogenous in cells
T1 sequence (Q15067 1-660): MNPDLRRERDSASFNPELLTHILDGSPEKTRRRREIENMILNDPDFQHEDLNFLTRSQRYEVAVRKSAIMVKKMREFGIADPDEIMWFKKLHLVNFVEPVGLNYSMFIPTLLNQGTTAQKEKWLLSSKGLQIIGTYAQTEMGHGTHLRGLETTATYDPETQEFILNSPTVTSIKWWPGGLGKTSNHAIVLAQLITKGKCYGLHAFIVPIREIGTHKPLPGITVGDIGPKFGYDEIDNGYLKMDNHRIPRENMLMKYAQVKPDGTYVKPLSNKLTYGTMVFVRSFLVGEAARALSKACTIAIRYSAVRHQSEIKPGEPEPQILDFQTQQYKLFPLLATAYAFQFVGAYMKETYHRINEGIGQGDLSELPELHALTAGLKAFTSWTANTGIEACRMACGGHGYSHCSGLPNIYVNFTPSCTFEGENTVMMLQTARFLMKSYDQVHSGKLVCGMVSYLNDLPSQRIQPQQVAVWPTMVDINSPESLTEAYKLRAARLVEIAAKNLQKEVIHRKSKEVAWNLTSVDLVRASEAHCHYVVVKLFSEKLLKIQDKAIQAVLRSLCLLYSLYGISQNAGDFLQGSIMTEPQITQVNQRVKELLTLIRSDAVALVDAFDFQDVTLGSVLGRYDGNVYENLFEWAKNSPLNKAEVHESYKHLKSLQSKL

AAK1 = target: T2, AAK1 (Homo sapiens, UniProt Q2M2I8); experiment: Kinobeads two-dose competition binding: AAK1; conditions: for CATDS: sheet CATDS matrix 2, Gene Name AAK1; for potency estimated from few doses: read-out: Kinobeads Drugmatrix - all: apparent Kd, AAK1;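 for all read-outs here: kinobeads competition pulldown from cell lysate, compound preincubated 45 min at 4 °C, bead-bound protein measured by label-free mass spectrometry against DMSO vehicle control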
T2 construct: to maximize the representation of endogenous proteins; endogenous in cells

ABL1 = ABL1 (Homo sapiens, UniProt P00519); experiment: Kinobeads two-dose competition binding: ABL1; conditions: sheet CATDS matrix 2; Gene Name ABL1
ABL2 = target: T3, ABL2 (Homo sapiens, UniProt P42684); experiment: Kinobeads two-dose competition binding: ABL2; conditions: sheet CATDS matrix 2; Gene Name ABL2
T3 construct: endogenous in cells

ACAD11 = target: T4, ACAD11 (Homo sapiens, UniProt Q709F0); experiment: Kinobeads two-dose competition binding: ACAD11; conditions: sheet CATDS matrix 2; Gene Name ACAD11
T4 construct: endogenous in cells
T4 sequence (Q709F0 1-780): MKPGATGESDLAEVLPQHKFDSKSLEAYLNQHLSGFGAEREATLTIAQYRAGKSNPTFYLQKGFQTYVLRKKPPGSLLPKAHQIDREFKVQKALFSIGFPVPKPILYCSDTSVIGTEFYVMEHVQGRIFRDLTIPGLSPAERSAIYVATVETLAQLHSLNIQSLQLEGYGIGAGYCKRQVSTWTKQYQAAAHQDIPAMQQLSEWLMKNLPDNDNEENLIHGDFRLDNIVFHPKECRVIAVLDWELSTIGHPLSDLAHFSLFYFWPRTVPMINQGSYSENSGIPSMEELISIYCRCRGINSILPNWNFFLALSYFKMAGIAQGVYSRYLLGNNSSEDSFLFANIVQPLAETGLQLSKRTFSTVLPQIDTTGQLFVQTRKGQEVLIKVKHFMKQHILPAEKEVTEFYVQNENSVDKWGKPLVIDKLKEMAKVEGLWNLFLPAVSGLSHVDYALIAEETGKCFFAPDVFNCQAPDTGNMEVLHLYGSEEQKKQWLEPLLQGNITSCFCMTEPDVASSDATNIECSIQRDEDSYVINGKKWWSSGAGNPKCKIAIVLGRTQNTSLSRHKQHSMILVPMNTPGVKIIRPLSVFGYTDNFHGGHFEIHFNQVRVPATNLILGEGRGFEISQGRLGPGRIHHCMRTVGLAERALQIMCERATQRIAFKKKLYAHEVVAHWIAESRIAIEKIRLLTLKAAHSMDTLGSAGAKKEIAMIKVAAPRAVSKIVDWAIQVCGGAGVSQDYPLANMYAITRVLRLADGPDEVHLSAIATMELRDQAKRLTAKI

[1] = sheet "Kinobeads Drugmatrix - all", unit inferred, same values below 1000 recur in sheet "nanomolar"

Chain of ABL1 (P00519 28-1130 limits assumed): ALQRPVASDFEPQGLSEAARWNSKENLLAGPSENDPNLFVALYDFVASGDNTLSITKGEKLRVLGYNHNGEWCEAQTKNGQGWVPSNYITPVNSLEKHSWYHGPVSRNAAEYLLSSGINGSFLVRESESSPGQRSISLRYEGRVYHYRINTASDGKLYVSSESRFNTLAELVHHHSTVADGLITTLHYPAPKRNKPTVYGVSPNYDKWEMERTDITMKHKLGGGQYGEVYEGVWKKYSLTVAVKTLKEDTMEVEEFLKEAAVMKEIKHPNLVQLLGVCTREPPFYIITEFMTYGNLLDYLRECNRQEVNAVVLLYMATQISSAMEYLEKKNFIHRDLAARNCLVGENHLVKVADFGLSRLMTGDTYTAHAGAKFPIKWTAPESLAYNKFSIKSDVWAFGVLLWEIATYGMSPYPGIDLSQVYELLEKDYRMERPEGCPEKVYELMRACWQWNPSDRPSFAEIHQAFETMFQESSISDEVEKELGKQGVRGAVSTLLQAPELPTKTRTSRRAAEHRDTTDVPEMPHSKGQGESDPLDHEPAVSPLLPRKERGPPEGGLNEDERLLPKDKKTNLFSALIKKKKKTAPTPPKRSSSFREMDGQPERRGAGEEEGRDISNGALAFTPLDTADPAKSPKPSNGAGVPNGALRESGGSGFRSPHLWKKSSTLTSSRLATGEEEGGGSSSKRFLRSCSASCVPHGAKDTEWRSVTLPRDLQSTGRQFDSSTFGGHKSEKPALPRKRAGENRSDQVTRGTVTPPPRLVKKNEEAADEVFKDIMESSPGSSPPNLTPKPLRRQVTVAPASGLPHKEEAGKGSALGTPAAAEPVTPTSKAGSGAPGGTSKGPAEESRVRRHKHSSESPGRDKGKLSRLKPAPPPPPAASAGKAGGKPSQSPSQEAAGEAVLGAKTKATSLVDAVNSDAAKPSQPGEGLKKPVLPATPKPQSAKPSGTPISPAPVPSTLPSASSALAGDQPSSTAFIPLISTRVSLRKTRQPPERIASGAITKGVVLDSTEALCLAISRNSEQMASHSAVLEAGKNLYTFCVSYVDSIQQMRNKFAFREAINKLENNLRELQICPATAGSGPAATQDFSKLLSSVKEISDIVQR
T2 sequence (Q2M2I8 whole entry): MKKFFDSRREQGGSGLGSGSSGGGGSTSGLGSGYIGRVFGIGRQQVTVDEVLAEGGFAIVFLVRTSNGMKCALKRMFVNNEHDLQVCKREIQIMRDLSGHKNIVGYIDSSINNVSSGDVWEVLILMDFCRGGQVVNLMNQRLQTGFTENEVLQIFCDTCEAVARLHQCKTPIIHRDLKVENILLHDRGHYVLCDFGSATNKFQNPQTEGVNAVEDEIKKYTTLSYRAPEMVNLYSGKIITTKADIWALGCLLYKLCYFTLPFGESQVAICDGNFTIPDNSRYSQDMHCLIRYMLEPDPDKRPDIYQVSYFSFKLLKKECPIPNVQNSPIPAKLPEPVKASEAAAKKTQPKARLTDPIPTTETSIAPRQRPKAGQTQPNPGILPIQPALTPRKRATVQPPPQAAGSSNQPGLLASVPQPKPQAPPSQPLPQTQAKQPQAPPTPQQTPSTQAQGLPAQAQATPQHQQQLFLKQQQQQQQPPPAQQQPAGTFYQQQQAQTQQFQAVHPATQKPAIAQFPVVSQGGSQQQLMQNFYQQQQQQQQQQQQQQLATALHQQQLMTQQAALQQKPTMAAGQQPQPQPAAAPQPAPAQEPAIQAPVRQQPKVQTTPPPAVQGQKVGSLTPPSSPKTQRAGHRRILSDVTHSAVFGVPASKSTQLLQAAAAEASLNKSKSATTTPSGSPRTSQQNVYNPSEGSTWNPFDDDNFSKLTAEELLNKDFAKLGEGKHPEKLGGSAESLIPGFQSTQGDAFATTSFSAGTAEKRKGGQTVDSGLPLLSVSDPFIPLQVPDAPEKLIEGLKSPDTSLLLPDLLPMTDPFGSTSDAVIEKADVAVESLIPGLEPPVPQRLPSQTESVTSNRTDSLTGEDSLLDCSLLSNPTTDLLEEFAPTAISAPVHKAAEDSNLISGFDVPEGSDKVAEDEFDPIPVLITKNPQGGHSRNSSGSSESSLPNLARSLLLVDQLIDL
T3 sequence (P42684 whole entry): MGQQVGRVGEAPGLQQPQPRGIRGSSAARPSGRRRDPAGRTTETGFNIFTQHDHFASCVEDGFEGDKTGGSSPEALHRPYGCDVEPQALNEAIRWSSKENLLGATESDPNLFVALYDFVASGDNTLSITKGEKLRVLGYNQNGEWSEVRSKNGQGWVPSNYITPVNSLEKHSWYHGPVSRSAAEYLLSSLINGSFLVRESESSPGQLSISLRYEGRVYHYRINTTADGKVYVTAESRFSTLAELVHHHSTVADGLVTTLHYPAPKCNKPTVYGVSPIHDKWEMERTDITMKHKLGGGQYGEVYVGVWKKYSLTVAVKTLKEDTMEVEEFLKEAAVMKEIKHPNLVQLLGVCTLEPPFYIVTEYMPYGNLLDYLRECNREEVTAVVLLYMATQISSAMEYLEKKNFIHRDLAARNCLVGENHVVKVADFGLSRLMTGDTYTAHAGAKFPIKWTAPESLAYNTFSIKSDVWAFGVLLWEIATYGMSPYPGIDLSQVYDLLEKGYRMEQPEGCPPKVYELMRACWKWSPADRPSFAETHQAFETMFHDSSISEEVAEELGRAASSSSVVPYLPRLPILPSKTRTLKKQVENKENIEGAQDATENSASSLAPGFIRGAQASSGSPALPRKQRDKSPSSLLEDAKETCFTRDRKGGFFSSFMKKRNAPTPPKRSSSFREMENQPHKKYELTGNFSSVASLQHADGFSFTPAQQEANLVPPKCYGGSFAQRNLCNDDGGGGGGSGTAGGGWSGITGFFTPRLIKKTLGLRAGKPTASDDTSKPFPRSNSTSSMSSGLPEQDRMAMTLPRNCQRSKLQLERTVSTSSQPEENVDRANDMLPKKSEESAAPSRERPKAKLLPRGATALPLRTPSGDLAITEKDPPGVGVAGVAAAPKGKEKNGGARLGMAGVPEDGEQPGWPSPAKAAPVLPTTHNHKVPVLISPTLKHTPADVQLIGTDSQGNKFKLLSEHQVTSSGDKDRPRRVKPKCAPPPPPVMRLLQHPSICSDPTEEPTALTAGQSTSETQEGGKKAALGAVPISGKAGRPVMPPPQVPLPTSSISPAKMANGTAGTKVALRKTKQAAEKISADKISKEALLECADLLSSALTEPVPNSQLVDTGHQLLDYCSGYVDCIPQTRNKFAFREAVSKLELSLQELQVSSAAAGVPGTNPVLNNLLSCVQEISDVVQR

CATDS (ACOX1)	CATDS (AAK1)	CATDS (ABL1)	CATDS (ABL2)	CATDS (ACAD11)	potency estimated from few doses (AAK1; [1])	SMILES	potency estimated from few doses (AAK1)
0	0	0	0	0		Cc1cn(-c2cc(NC(=O)c3ccc4c(c3)CN(c3cncnc3)C[C@@H]4C)cc(C(F)(F)F)c2)cn1 [Compound D2202-1]	
0	0	0	0	0		CC(C)(C)OC(=O)NC1CCCN(c2cc(-c3ccc4c(N)n[nH]c4c3)nc(N)n2)C1 (centres unmarked) [GSK2286096A]	
0	0	0	0	0		N#Cc1cccc(C(=O)NC2CCN(c3ccnc(Nc4ccc(F)cc4)n3)C2)c1 (centres unmarked) [GSK1379708A]	
0	0	0	0	0	> 1000 nM	COC(=O)c1cccc(NC(=O)NC2CCN(c3ccnc(Nc4cc(OC)c(OC)c(OC)c4)n3)C2)c1 (centres unmarked) [GSK1379767A]	
0	0	0	0	0		COc1ccc(Nc2nccc(N3CCC(NC(=O)c4cccc(NC(C)=O)c4)C3)n2)cc1 (centres unmarked) [GSK1379732A]	
0	0	0	0	0		CNC(=O)c1ncccc1Nc1nc(Nc2cc3c(cc2OC)CCCN3C(=O)CN(C)C)nc2[nH]ccc12 [GSK2220400A]	
0	0		0.05811	0		CO[C@@H](C(=O)N1Cc2n[nH]c(NC(=O)c3ccc(N4CCN(C)CC4)cc3)c2C1)c1ccccc1 [Danusertib, reference compound]	
	0					COc1cc2ncnc(Nc3ccc(F)c(Cl)c3)c2cc1OCCCN1CCOCC1 [Gefitinib, reference compound]	
					> 1000 nM	COc1cccc(NC(=O)NC2CCN(c3ccnc(Nc4cc(OC)c(OC)c(OC)c4)n3)C2)c1 (centres unmarked) [GSK1379763A]	
0				0		COc1cc(Nc2c(C#N)cnc3cc(OCCCN4CCN(C)CC4)c(OC)cc23)c(Cl)cc1Cl [Bosutinib, reference compound]	
0	0		0.1826	0		Cc1nc(Nc2ncc(C(=O)Nc3c(C)cccc3Cl)s2)cc(N2CCN(CCO)CC2)n1 [Dasatinib, reference compound]	
					> 1000 nM	COc1ccc(CNC(=O)NC2CCN(c3ccnc(Nc4cc(OC)c(OC)c(OC)c4)n3)C2)cc1 (centres unmarked) [GSK1379748A]	

Continued, compound first:

SMILES	CATDS (ACOX1)	CATDS (AAK1)	CATDS (ABL1)	CATDS (ABL2)	CATDS (ACAD11)	potency estimated from few doses (AAK1; [1])	potency estimated from few doses (AAK1)
Nc1nc(Nc2ccccc2)cc(-c2ccc3c(N)n[nH]c3c2)n1 [GSK2225749A]	0	0.2514	0	0	0		
CNc1nc(-c2ccc3c(N)n[nH]c3c2)cc(N2C[C@@H](C(=O)NC3CCCCC3)CC[C@H]2C)n1 [GSK2334470]	0	0		0	0		
CCn1c(-c2nonc2N)nc2c(C#CC(C)(C)O)nc(O[C@@H](CN)c3ccccc3)cc21 [GSK1007102B]	0	0.04112	0	0	0	67.3 nM	
O=c1[nH]cc(-c2ccc(N3CCOCC3)cc2)c2sc(-c3cn[nH]c3)cc12 [GSK2276055A]	0	0	0	0	0		
Cc1cccc(Nc2nc(N[C@H]3CCNC3)ncc2C(N)=O)c1 [GSK2197149A]	0	0.1293	0	0	0		64.6 nM
CNC(=O)c1ccccc1Sc1ccc2c(/C=C/c3ccccn3)n[nH]c2c1 [Axitinib, reference compound]	0	0		0	0		
O=C1Nc2ccccc2/C1=C1\CCc2cc(O)ccc21 [GR105659X]	0	0	0	0	0		
NCCCC(NC(=O)c1cc(Br)c(-c2ccnc3[nH]ccc23)s1)c1ccccc1 (centres unmarked) [GSK1287544A]	0	0	0	0	0		
C=CC(=O)Nc1cc(-n2c(=O)ccc3cnc4ccc(-c5ccc(NS(C)(=O)=O)cc5)cc4c32)ccc1C [BMX-IN-1]	0	0	0	0	0		
C#Cc1cccc(Nc2ncnc3cc(OCCOC)c(OCCOC)cc23)c1 [Erlotinib, reference compound]		0	0				
CN(C)C(=O)O[C@H]1CN[C@H](C#Cc2cc3ncnc(Nc4ccc(OCc5cccc(F)c5)c(Cl)c4)c3s2)C1 [GSK182497A]	0	0	0	0	0		
COc1cc2ncn(-c3cc(OCc4ccccc4C(F)(F)F)c(C(C)=O)s3)c2cc1OC [GSK1030059A]	0	0	0	0	0		
NCC1CNC(=O)c2cc3ccc(C(=O)Nc4cccnc4)cc3n2C1 (centres unmarked) [BI00614644]	0	0	0	0	0		
Cc1cc(N2CCC(NS(=O)(=O)c3ccc(F)cc3)CC2)nc(Nc2cccc(C#N)c2)n1 [GSK1653537A]	0	0	0	0	0		
O=S(=O)(c1cccc2cnccc12)N1CCCNCC1 [Fasudil, reference compound]	0	0	0	0	0		
O=C(Nc1c[nH]nc1-c1nc2ccc(CN3CCOCC3)cc2[nH]1)NC1CC1 [AT-9283, reference compound]	0	0.0448		0	0		
C[C@@H](Oc1cc(-c2cnn(C3CCNCC3)c2)cnc1N)c1c(Cl)ccc(F)c1Cl [Crizotinib, reference compound]	0	0		0.04718	0		
O=c1[nH]ccc2nc(N[C@@H]3CCCNC3)nc(Nc3ccc(S(=O)(=O)N4CCOCC4)cc3)c12 [GSK2177277A]	0	0.01814	0	0		64.1 nM	
COc1cc2ncnc(Nc3cccc(Br)c3)c2cc1OC [GI230329A]	0	0		0	0		
CC(C)(C)c1nc(-c2cccc(NS(=O)(=O)c3c(F)cccc3F)c2F)c(-c2ccnc(N)n2)s1 [Dabrafenib, reference compound]	0	0		0.02813	0		
